Assay results taken from ChEMBL document CHEMBL3991601, “The target landscape of clinical kinase drugs” (Science, 2017).
The source made the active and inactive calls.

Key:
[1] = target: T1, Interleukin-1 receptor-associated kinase 3 (Homo sapiens, UniProt Q9Y616)
T1 sequence (Q9Y616 whole entry): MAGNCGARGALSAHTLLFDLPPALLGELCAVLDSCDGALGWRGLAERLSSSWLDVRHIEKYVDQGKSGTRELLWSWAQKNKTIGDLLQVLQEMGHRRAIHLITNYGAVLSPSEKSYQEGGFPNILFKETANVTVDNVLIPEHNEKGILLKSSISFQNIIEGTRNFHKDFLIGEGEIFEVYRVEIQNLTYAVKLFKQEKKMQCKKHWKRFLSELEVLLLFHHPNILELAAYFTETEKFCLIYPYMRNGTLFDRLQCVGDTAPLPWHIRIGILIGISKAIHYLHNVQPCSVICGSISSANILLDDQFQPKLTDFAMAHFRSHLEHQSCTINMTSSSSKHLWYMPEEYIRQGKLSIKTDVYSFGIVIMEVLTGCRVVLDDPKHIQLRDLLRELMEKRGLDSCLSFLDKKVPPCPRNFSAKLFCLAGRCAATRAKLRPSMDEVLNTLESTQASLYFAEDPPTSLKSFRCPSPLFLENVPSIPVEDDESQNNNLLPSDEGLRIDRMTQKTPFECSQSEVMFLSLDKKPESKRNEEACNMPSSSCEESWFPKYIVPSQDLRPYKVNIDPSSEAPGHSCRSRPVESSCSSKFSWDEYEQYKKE

Septin-9 = target: T2, Septin-9 (Homo sapiens, UniProt Q9UHD8)
T2 sequence (Q9UHD8 whole entry): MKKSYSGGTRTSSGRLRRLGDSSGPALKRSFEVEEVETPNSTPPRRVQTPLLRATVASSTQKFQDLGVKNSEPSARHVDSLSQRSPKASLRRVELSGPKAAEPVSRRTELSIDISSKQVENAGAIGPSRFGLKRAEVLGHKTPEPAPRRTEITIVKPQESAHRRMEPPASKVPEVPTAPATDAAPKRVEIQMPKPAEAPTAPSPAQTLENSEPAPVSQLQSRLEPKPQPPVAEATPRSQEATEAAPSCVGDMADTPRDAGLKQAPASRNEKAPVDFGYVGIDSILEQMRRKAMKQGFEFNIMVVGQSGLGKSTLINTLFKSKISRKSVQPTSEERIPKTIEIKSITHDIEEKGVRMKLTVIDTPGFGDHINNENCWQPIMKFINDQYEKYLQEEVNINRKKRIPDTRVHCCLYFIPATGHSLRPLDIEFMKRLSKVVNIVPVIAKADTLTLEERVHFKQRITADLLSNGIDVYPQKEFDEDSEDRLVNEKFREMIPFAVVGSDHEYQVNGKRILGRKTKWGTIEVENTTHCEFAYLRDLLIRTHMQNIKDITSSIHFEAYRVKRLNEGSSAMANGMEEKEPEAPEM

[2] = target: T3, Adenine phosphoribosyltransferase (Homo sapiens, UniProt P07741)
T3 sequence (P07741 whole entry): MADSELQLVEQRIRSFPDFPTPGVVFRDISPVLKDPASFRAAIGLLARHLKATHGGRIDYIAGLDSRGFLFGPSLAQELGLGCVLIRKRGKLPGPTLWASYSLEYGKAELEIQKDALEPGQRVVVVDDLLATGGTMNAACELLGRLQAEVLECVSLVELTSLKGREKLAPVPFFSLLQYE

[3] = target: T4, Phosphatidylinositol 5-phosphate 4-kinase type-2 alpha (Homo sapiens, UniProt P48426)
T4 sequence (P48426 whole entry): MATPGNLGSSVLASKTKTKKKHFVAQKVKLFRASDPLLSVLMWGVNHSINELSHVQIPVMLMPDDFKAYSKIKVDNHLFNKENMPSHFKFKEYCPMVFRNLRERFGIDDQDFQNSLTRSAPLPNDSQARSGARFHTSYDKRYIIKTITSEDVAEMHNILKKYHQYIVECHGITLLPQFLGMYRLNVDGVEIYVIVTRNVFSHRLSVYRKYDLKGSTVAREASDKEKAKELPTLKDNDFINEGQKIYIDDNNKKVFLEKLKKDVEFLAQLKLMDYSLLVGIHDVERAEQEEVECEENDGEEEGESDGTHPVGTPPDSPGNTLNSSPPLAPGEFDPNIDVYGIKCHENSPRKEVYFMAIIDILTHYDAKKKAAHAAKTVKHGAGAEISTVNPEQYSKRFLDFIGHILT

[4] = target: T5, STE20-related kinase adapter protein alpha (Homo sapiens, UniProt Q7RTN6)
T5 sequence (Q7RTN6 whole entry): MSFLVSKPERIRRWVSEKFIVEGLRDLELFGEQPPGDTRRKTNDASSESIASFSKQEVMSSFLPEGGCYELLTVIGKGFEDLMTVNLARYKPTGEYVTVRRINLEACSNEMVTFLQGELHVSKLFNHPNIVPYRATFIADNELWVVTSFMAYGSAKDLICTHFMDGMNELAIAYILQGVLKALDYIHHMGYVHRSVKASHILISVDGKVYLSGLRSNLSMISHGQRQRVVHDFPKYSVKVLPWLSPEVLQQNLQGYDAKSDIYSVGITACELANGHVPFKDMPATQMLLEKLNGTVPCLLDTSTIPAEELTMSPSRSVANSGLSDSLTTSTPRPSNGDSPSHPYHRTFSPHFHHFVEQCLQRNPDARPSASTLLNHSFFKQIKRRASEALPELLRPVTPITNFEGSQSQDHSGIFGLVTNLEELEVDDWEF

[5] = target: Serine/threonine-protein kinase N1 (Homo sapiens, UniProt Q16512)
Serine/threonine-protein kinase N1, sequence (Q16512 whole entry): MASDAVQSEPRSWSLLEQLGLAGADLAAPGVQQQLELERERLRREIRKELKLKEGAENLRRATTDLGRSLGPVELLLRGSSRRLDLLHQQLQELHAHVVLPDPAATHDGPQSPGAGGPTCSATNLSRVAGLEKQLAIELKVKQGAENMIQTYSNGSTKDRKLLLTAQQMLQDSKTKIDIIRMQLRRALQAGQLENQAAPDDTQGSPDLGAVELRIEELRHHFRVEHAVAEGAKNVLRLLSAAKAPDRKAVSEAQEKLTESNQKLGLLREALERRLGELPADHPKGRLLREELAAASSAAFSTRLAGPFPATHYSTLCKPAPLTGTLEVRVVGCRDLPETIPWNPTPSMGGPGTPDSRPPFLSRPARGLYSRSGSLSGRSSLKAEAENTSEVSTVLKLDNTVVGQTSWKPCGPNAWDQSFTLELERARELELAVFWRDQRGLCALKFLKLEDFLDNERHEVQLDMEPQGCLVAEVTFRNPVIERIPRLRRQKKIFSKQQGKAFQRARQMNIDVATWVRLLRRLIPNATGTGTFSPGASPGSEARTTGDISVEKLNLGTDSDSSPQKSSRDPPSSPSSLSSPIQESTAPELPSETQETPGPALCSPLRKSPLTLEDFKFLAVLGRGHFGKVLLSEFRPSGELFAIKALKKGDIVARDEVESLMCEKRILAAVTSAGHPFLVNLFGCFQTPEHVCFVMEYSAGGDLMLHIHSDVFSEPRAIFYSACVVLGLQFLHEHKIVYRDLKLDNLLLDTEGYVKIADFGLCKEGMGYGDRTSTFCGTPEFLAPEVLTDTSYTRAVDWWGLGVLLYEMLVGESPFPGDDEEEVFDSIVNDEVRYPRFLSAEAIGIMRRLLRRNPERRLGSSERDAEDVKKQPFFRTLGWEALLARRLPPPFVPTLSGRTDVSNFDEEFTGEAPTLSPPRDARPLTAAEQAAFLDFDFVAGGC

[6] = target: Tyrosine-protein kinase ABL1 (Homo sapiens, UniProt P00519)
Tyrosine-protein kinase ABL1, sequence (P00519 whole entry): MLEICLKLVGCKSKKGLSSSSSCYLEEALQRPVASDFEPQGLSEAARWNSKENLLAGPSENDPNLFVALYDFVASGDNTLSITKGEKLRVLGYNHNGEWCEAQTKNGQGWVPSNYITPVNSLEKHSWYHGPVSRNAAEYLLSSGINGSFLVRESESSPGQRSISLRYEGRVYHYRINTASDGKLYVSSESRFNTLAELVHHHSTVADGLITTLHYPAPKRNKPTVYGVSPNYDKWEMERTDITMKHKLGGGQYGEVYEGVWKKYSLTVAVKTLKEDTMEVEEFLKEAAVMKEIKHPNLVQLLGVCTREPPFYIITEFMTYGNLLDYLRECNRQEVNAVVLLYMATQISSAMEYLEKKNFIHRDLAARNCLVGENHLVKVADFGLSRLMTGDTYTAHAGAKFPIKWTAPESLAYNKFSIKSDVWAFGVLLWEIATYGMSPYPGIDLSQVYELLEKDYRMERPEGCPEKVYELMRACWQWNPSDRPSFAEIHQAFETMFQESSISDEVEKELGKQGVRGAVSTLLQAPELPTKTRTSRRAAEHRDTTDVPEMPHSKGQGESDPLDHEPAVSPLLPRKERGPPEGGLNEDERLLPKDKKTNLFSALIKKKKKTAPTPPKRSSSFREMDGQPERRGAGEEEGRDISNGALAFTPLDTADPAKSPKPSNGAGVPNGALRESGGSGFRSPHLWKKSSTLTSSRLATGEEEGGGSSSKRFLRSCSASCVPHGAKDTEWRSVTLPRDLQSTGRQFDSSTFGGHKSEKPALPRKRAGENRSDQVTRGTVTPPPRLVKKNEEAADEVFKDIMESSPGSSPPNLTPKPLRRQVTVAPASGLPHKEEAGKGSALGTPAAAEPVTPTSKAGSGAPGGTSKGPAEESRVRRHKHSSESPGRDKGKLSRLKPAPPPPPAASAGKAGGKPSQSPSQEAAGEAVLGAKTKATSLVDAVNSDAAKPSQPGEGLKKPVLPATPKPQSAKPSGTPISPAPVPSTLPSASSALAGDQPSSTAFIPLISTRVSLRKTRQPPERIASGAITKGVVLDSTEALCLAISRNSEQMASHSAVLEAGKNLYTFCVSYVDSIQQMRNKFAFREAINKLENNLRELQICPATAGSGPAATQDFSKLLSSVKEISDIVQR

[7] = target: Receptor-interacting serine/threonine-protein kinase 3 (Homo sapiens, UniProt Q9Y572)
Receptor-interacting serine/threonine-protein kinase 3, sequence (Q9Y572 whole entry): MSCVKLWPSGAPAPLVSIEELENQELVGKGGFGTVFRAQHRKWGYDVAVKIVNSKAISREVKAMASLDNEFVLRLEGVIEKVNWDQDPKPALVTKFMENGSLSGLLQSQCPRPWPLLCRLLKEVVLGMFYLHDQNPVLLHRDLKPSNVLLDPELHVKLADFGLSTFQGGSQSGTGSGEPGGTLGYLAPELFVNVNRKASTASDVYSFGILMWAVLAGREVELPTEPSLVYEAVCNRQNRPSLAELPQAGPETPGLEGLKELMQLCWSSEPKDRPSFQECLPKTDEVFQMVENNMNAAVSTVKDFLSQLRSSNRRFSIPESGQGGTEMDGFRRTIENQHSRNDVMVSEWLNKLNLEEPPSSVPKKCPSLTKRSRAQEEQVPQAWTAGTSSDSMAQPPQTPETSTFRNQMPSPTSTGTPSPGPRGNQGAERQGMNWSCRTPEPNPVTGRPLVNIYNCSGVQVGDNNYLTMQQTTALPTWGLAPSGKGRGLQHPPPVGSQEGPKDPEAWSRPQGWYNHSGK
Also: in the data inactive means no Kd found up to 30 µM.

Kd [1] | Kd (Septin-9) | Kd [2] | Kd [3] | Kd [4] | Kd [5] | Kd [6] | Kd [7] | Compound
> 30 µM (inactive) | > 30 µM (inactive) | > 30 µM (inactive) | > 30 µM (inactive) | > 30 µM (inactive) | > 30 µM (inactive) | > 30 µM (inactive) | > 30 µM (inactive) | O[C@H]1CC[C@H](Nc2ncc3nc(Nc4c(F)cc(F)cc4F)n([C@H]4CCOC4)c3n2)CC1 [TANZISERTIB]
> 30 µM (inactive) | > 30 µM (inactive) | > 30 µM (inactive) | > 30 µM (inactive) | > 30 µM (inactive) | > 30 µM (inactive) | > 30 µM (inactive) | > 30 µM (inactive) | Cc1ccc(C(=O)Nc2ccc(Oc3cc4cnn(C)c4cc3-c3cn[nH]c3)c(F)c2)c(=O)n1-c1ccc(F)cc1 [MERESTINIB]
> 30 µM (inactive) | > 30 µM (inactive) | > 30 µM (inactive) | > 30 µM (inactive) | > 30 µM (inactive) | > 30 µM (inactive) | > 30 µM (inactive) | > 30 µM (inactive) | COc1cccc2cc(-c3nc([C@H]4CC[C@H](C(=O)O)CC4)n4ncnc(N)c34)[nH]c12 [OSI-027]
> 30 µM (inactive) | > 30 µM (inactive) | > 30 µM (inactive) | > 30 µM (inactive) | > 30 µM (inactive) | > 30 µM (inactive) | > 30 µM (inactive) | > 30 µM (inactive) | NC(=O)c1ccc(N(C(N)=O)c2c(F)cccc2F)nc1-c1ccc(F)cc1F [VX-702]
> 30 µM (inactive) | > 30 µM (inactive) | > 30 µM (inactive) | > 30 µM (inactive) | > 30 µM (inactive) | > 30 µM (inactive) | > 30 µM (inactive) | > 30 µM (inactive) | c1cc(OCCN2CCCCC2)cc(-c2n[nH]c3ccc(-c4nc[nH]n4)cc23)c1 [CC-401]

Compound | Kd [1] | Kd (Septin-9) | Kd [2] | Kd [3] | Kd [4] | Kd [5] | Kd [6] | Kd [7]
C=CC(=O)Nc1cc(Nc2nccc(-c3cn(C)c4ccccc34)n2)c(OC)cc1N(C)CCN(C)C [OSIMERTINIB] | > 30 µM (inactive) | > 30 µM (inactive) | > 30 µM (inactive) | > 30 µM (inactive) | > 30 µM (inactive) | > 30 µM (inactive) | > 30 µM (inactive) | > 30 µM (inactive)
CNC(=O)c1ccc(Nc2ncc(C(F)(F)F)c(NCc3nccnc3N(C)S(C)(=O)=O)n2)cc1 [DEFACTINIB] | > 30 µM (inactive) | > 30 µM (inactive) | > 30 µM (inactive) | > 30 µM (inactive) | > 30 µM (inactive) | > 30 µM (inactive) | > 30 µM (inactive) | > 30 µM (inactive)
